Measurements reported in US12285012B2, “Compositions comprising pyridine carboxylate herbicides with acetolactate synthase (ALS) inhibitor herbicides” (Corteva Agriscience LLC, priority 2018, dated 2025).
Values joined by “and” are separate entries in the source; they are usually repeats but may differ in a detail not shown here. Equal entries are not always repeated. Where two headings read alike, the source gives them in different places.

Assays:
[1] = test system: pineapple weed (MATMT, Matricaria discoidea); test: Greenhouse postemergence herbicidal effect; format: in vivo; conditions: for Obs % visual injury: MATMT
Procedure, shortened: (§1)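 Visual injury ratings (0 = no injury, 100 = complete kill) were taken 20–22 d after treatment relative to solvent-blank controls. Applications were made to plants at the second or third true leaf stage, using emulsifiable concentrates with cloquintocet-mexyl safener.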

[2] = test system: wild buckwheat (POLCO, Polygonum convolvulus); test: Greenhouse postemergence herbicidal effect; format: in vivo; conditions: for Obs % visual injury: POLCO
Procedure, shortened: as §1

[3] = test system: Russian thistle (SASKR, Salsola kali); test: Greenhouse postemergence herbicidal effect; format: in vivo
Procedure, shortened: as §1

[4] = test system: Canadian thistle (CIRAR, Cirsium arvense); test: Greenhouse postemergence herbicidal effect; format: in vivo
Procedure, shortened: as §1

[5] = test system: wild chamomile (MATCH, Matricaria chamomilla); test: Greenhouse postemergence herbicidal effect; format: in vivo; conditions: for Obs % visual injury: MATCH
Procedure, shortened: as §1

[6] = test system: pigweed (AMARE, Amaranthus retroflexus); test: Greenhouse postemergence herbicidal effect; format: in vivo; conditions: for Obs % visual injury: AMARE
Procedure, shortened: as §1

[7] = test system: common lambsquarters (CHEAL, Chenopodium album L.); test: Greenhouse postemergence herbicidal effect; format: in vivo; conditions: for Obs % visual injury: CHEAL
[8] = test system: kochia (KCHSC, Kochia scoparia); test: Greenhouse postemergence herbicidal effect; format: in vivo; conditions: for Obs % visual injury: KCHSC
Procedure, shortened: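 Plants at the second or third true leaf stage received overhead spray at 187 L/ha, with the pyridine carboxylate (plus cloquintocet-mexyl safener) alone or with ALS herbicides in 1.25% v/v crop oil. Rates are in g ae/ha or g ai/ha. Visual injury versus solvent-blank controls was scored 0–100% after 20-22 d in the greenhouse.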

spring wheat (TRZAS) = format: in vivo, Triticum aestivum; conditions: for Obs % visual injury: TRZAS
Procedure, shortened: as §1

spring barley (HORVS) = format: in vivo, Hordeum vulgare
Procedure, shortened: as §1

[9] = Compound B (without cloquintocet-mexyl safener) 10 g/ha

## C#CCOC(=O)c1nc(-c2ccc3cc[nH]c3c2F)c(F)c(N)c1Cl [Compound B, propargyl 4-amino-3-chloro-5-fluoro-6-(7-fluoro-1H-indol-6-yl)pyridine-2-carboxylate]
[1]; Compound B 10 g/ha
  Obs % visual injury: 20%
[2]; 10 g/ha
  % visual injury, Obs: 90%
[2]; Compound B 5 g/ha
  Obs % visual injury: 88%
[2]; Compound B 10 g/ha
  Obs % visual injury: 97% and 87%
[3]; SASKR, Compound B 10 g/ha
  Obs % visual injury: 63%
[4]; CIRAR, Compound B 5 g/ha
  Obs % visual injury: 50%
[4]; Cirsium arvense, post-emergence, 10 g/ha, read-out: % visual injury, Obs
  pest or weed control at 10 g/ha: 55%
[5]; Compound B 10 g/ha
  Obs % visual injury: 20% and 18%
[6]; 10 g/ha
  % visual injury, Obs: 73%
[6]; Compound B 5 g/ha
  Obs % visual injury: 93%
[6]; Compound B 10 g/ha
  Obs % visual injury: 84% and 94%
[7]; 10 g/ha
  % visual injury, Obs: 93%
[7]; Compound B 5 g/ha
  Obs % visual injury: 96%
[7]; Compound B 10 g/ha
  Obs % visual injury: 94% and 96%
[8]; Bassia scoparia, post-emergence, 10 g/ha, read-out: % visual injury, Obs
  pest or weed control at 10 g/ha: 73%
[8]; Compound B 5 g/ha
  Obs % visual injury: 60%
[8]; Compound B 10 g/ha
  Obs % visual injury: 65%
[8]; [9]
  Obs % visual injury: 96%
Spring wheat (TRZAS); Compound B 5 g/ha
  Obs % visual injury: 13%
Spring wheat (TRZAS); [9]
  Obs % visual injury: 28%
Spring barley (HORVS); HORVS, Compound B 10 g/ha
  Obs % visual injury: 0%

## COc1ncc(F)c2nc(S(=O)(=O)Nc3c(F)cccc3F)nn12 [Florasulam, florasulam]
[1]; Florasulam 5 g/ha
  % visual injury: 95%
  Obs % visual injury: 65%
[2]; Florasulam 3.75 g/ha
  % visual injury Obs: 90%
[2]; Florasulam 5 g/ha
  % visual injury: 87%
[3]; Florasulam 5 g/ha
  % visual injury: 85%
[4]; Florasulam 3.75 g/ha
  % visual injury Obs: 68%
[4]; Florasulam 5 g/ha
  % visual injury: 75%
[5]; Florasulam 3.75 g/ha
  % visual injury Obs: 85%
[5]; Florasulam 5 g/ha
  % visual injury: 85%
  Obs % visual injury: 20%
[6]; Florasulam 3.75 g/ha
  % visual injury Obs: 100%
[7]; Florasulam 3.75 g/ha
  % visual injury Obs: 0%
[8]; Florasulam 3.75 g/ha
  % visual injury Obs: 70%
[8]; Florasulam 5 g/ha
  % visual injury: 95%
Spring wheat (TRZAS); Florasulam 3.75 g/ha
  % visual injury Obs: 0%
Spring wheat (TRZAS); Florasulam 5 g/ha
  % visual injury: 0%
Spring barley (HORVS); Florasulam 3.75 g/ha
  % visual injury Obs: 0%
Spring barley (HORVS); Florasulam 5 g/ha
  % visual injury: 0%
